Tests used:
[1] = test system: Meth A; experiment: CD4 depletion (GK1.5) in immunized, Meth A-challenged mice; assay type: in vivo, BALB/cJ mice
Text: In order to determine if any peptides within Ccdc85c^MUT could be presented by MHC II molecules, we analyzed the interaction of H2-A^d and H2-E^d with TYIRPFETKVK, YIRPFETKVK and IRPFETKVK as well as their wild type counterparts, using a cell-surface density assay. In this assay, β-chains of H2-Ab1^d or H2-Eb1^d are expressed in fusion with the peptide of interest and the amount of cell-surface MHC II, as a measure of intrinsic stability of MHC II, is quantified in engineered conditions. The measured cell-surface MHC density correlates well with the actual affinity of the peptide to MHC II. […] This was observed when CD4 depletion was carried out during the priming phase alone (as in Supplementary Fig. 2b), or throughout the entire experiment including the effector phase (i.e. post tumor challenge).
Supplementary Fig. 2. Assessing CD4 response to Ccdc85c . a Presentation of Ccdc85cMUT and Ccdc85cWT peptides by H2-IA and H2-IE are measured by cell-surface density assay. The y-axis indicates MHC/GFP (ratio of MHC MFI to GFP MFI) for MHC II-peptide, normalized to the MHC/GFP of the negative control peptide, G9, 9-mer all-glycine. Four technical and two independent biological repeats of this experiment have been practiced. The following additional negative control peptides are used: G12 (12-mer all-glycine) and GGS12 (4x(glycine-glycine-serine). b. Naïve BALB/cJ mice were injected with 250 µg of CD4 depleting GK1.5 antibody or isotype control during the priming phase (6 days before the first immunization). Mice were immunized, as described in the Methods, with Ccdc85cMUT and were challenged with 95,000 Meth A cells. The differences between tumor growth curves […]
(1 picture or pasted object on this page, not shown here)

[2] = test system: tumor infiltrating CD45 + cells; experiment: scRNA seq of tumor infiltrating CD45+ cells in immunized mice; assay type: in vivo, BALB/cJ mice
Text: Tumor microenvironment (TME) of Ccdc85c^MUT-immunized mice was examined using single cell RNA sequencing (scRNA seq). BMDCs- immunized mice were used as controls. As a peptide control, mice immunized with a neoepitope Alms1^MUT were used. […] Mice were immunized with Ccdc85c^MUT, Alms1^MUT (peptide control) or BMDCs (control) as described in Methods, and were challenged with Meth A. RNA from CD45 + cells (estimated 15,925 cells for the four libraries after QC, with an average coverage of 32,663 reads per cell and median 1,339 genes per cell) was sequenced. Data from the four libraries were pooled and clustered based on the gene expression pattern of each as described in Methods. Annotation of the clusters was informed by both differentially expressed genes (DE Genes) and per cluster highly expressed genes identified by the TF-IDF analysis as described in Methods. Two major and distinct clusters were identified namely, myeloid and lymphoid. […] The proportion of lymphoid versus myeloid compartments in the Ccdc85c^MUT library was very different compared to the Alms1^MUT or control groups. The Ccdc85c^MUT library was mostly composed of lymphoid cells (62.68% lymphoid and 37.32% myeloid), while the control groups and mice immunized with Alms1^MUT were mostly composed of the myeloid compartment (~35% lymphoid and ~64% myeloid) (Fig. 2a, right panel). In order to study different cell types, lymphoid and myeloid clusters were re-clustered into 6 and 9 sub-clusters, respectively (Fig. 2a, bottom panel). The six identified lymphoid clusters were: CD4 T cells (CD4(1)), NKC(1), naive/early activated CD4 T cells (CD4(2), defined by a high expression of Sell, Il7r, Tcf7 and Ccr7 genes and low expression of Il2ra and lack of expression of effector and cytotoxicity genes), NKC(2) (less cytotoxic and active than NKC(1)), CD8 T cells (CD8) and proliferating CD4/CD8 T cells (Pr. CD4/CD8, defined by higher expression of Stmn1 and Mki67 genes and cell cycle gene expression analysis, described in Methods). The selected genes used as markers to annotate each lymphocyte cluster are listed in the summary heat map (Fig. 2b, right panel).
Fig. 2 Immune response in mice immunized with Ccdc85c^MUT and control neoepitope Alms1.1^MUT. a Tumors from mice immunized with Ccdc85c^MUT or Alms1.1^MUT as well as two groups of control mice immunized with BMDCs were harvested 10 days after tumor challenge. Tumor infiltrating CD45 + cells were sorted and analyzed by scRNA seq as described in Methods and Supplementary Fig 9b. Combined scRNA seq data from four libraries were analyzed. The t-SNE[34] plots of all intra-tumoral immune cells as well as myeloid and lymphoid compartments are shown in the top left panel. Myeloid and lymphoid composition for each library is shown on the right panel. The myeloid and lymphoid sub-clusters are shown in the bottom panels. See text for definition of each sub-cluster. b Heat maps of the indicated genes in the myeloid and lymphoid compartments are shown. The heat map genes were selected from the list of differentially expressed genes, genes with a high average TF-IDF score, and typical cell type markers. The average gene expression for each cluster was normalized by dividing it from the maximum value of each row (gene). c Summary heat map of selected genes associated with cytotoxicity for pooled activated T cells is shown. The heat map illustrates scaled (Z-scored) average gene expression by library. TEXT PRINTED IN THE PICTURE: (a) Alms1.1^MUT: Lymphoid cells: 34.28%; Myeloid cells: 65.72% | (a) Ccdc85c^MUT: Lymphoid cells: 62.68%; Myeloid cells: 37.32% DOUBTS OF THE COPYIST ABOUT THIS PICTURE: Panel a, bar chart: no measure is printed beside the percentages. I assigned them to 'Lymphoid cells' (blue) and 'Myeloid cells' (red) only by matching the colours of the plot next to it. / Panel a, bar chart: the control bars also carry percentages (Cont.1: 35.75% and 64.25%; Cont.2: 37.55% and 62.45%). […]

[3] = compared to control or Alms1^MUT libraries
[4] = tumors harvested 10 days after Meth A challenge

Sequence: DPSSTYIRPFETKVKLLD [18-mer peptide with the mutant amino acid near the center]
- effect of CD4 T cell depletion on tumor rejection ([1]; 250 µg GK1.5, priming phase (6 days before first immunization), 95,000 Meth A cells, listed as Ccdc85cMUT): not statistically significant
- effect of CD4 T cell depletion on tumor rejection ([1]; 250 µg GK1.5, priming phase (6 days before first immunization), 95,000 Meth A cells, listed as Ccdc85c^MUT): did not lead to reproducible and statistically significant abrogation of tumor rejection
- effect of CD4 T cell depletion on tumor rejection ([1]; depletion throughout the entire experiment including the effector phase): did not lead to reproducible and statistically significant abrogation of tumor rejection
- contribution of library to myeloid cluster Mφ1 ([2]; Mφ1): ~ 20%
- contribution of library to myeloid cluster Mφ2 ([2]; Mφ2, highest apart from Mφ1): 13.4%
- contribution of library to myeloid cluster Mφ3 ([2]; Mφ3, lowest contribution): 1.6%
- expression of cytotoxicity (Gzmb, Prf, Nkg7) and effector function (Ifng) genes in T cells [2, 3]: significantly higher
- expression of genes involved in TCR engagement (Nr4a1 and Irf4) in T cells [2, 3]: significantly higher
- expression of Eomes in T cells ([2]; compared to other libraries): significantly higher
- contribution of library to pooled activated CD4 and CD8 T cells (clusters 1 and 5) ([2]; proliferating CD4/CD8 T excluded): 31%
- Lymphoid cells, fraction of intra-tumoral immune cells [2, 4]: 62.68%
- Myeloid cells, fraction of intra-tumoral immune cells [2, 4]: 37.32%
- fraction of NK cells from the NKC(1) (more cytotoxic and active) cluster [2, 4]: ~ 80%
